Experiment [1] deals with LIM domain kinase 2 (Homo sapiens) (UniProt P53671). The experiment can be described thus: Selectivity interaction (ProQinase) EUB0000171b LIMK2.
Experiment [2] relates to Epidermal growth factor receptor (Homo sapiens), P00533 [G719C]. Conditions: at 10 µM.
Experiment [3] concerns the target Myosin light chain kinase, smooth muscle (Homo sapiens, UniProt Q15746). Conditions: at 10 µM.
The target in experiment [4] is Casein kinase I isoform epsilon (Homo sapiens, UniProt P49674). Nature of the experiment: Selectivity interaction (Ambit KINOMEscan and KiNATiv profiling in Jurkat cells) EUB0000090b CSNK1E. In kind it is cell-based. The settings on record: at 1 µM.
Chain of Casein kinase I isoform epsilon (P49674 whole entry, looked up, canonical isoform): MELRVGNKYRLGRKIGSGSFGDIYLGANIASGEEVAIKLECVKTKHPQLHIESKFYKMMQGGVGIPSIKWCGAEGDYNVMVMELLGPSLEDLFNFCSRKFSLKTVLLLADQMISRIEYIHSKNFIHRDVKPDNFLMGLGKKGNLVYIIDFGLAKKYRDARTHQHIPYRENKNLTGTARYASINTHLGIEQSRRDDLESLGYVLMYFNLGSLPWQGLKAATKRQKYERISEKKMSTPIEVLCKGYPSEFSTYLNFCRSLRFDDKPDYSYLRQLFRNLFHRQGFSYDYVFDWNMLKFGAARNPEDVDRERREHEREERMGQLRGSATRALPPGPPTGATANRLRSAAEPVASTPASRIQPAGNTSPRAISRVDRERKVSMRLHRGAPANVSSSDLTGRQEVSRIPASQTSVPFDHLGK
Experiment [5] deals with AP2-associated protein kinase 1 (Homo sapiens, UniProt Q2M2I8). The experiment can be described thus: Selectivity interaction (Ambit KINOMEscan and KiNATiv profiling in Jurkat cells) EUB0000090b AAK1. The class given is cell-based. The settings on record: at 1 µM.
Chain of AP2-associated protein kinase 1 (Q2M2I8 whole entry, looked up): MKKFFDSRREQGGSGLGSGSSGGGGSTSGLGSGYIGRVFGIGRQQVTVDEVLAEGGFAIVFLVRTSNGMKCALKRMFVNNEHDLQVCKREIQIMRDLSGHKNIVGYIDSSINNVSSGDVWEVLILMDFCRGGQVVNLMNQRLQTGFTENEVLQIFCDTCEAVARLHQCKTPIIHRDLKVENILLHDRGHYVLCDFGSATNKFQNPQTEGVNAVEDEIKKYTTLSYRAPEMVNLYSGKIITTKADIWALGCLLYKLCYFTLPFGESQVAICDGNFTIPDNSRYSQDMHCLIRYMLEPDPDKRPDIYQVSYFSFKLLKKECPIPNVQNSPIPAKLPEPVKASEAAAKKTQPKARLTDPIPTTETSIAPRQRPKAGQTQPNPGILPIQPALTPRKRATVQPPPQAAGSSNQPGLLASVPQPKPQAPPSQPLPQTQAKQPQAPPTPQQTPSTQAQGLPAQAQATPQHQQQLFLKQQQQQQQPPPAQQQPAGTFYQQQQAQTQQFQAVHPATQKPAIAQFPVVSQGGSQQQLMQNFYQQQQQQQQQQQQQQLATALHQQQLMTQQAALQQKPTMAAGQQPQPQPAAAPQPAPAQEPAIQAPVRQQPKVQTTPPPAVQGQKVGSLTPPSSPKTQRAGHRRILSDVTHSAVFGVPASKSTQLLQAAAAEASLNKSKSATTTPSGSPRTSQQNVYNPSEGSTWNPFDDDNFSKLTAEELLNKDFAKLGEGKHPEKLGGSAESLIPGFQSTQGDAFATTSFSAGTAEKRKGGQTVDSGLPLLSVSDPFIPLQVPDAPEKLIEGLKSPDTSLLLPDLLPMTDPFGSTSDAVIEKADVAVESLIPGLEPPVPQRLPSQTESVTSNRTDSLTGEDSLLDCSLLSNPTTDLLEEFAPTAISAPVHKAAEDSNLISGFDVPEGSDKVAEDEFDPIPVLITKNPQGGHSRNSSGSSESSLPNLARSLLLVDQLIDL
Experiment [6] concerns the target T1, Serine/threonine-protein kinase ULK1 (Homo sapiens) (UniProt O75385).
T1 sequence (whole entry): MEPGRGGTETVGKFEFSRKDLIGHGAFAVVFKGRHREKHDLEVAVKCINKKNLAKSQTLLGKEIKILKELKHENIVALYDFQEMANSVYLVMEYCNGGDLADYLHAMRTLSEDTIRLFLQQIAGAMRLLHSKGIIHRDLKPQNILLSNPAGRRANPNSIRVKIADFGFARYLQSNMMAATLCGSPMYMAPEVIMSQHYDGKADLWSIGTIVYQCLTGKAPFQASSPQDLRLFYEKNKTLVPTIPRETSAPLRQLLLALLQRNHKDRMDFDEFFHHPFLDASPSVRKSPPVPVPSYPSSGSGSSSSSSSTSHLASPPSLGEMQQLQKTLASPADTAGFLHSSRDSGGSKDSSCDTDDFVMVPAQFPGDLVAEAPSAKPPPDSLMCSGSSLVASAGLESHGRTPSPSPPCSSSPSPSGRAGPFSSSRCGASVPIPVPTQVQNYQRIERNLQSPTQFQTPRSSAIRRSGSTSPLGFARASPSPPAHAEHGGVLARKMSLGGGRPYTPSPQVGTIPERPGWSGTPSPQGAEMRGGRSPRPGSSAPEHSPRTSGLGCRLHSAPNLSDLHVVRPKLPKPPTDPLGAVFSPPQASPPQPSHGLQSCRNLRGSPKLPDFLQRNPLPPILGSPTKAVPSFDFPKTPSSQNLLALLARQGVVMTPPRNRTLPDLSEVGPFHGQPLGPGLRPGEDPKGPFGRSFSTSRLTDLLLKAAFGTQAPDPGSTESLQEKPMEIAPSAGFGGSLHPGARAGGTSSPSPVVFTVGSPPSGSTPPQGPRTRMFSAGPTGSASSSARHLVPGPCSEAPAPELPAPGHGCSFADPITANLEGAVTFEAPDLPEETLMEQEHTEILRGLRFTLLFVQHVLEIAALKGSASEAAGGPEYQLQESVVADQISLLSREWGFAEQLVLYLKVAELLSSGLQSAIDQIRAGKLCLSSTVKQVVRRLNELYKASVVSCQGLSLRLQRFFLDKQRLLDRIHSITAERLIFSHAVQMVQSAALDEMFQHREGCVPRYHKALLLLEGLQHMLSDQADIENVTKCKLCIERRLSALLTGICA
Nature of the experiment: Selectivity interaction (KinomeScan (DiscoverX)) EUB0000655a ULK1. Conditions: at 10 µM.

In the next experiment the target is Insulin receptor (Homo sapiens, UniProt P06213). Nature of the experiment: Selectivity interaction (KinomeScan (DiscoverX)) EUB0000655a INSR. The settings on record: at 10 µM.
Chain of Insulin receptor (P06213 28-758 limits assumed): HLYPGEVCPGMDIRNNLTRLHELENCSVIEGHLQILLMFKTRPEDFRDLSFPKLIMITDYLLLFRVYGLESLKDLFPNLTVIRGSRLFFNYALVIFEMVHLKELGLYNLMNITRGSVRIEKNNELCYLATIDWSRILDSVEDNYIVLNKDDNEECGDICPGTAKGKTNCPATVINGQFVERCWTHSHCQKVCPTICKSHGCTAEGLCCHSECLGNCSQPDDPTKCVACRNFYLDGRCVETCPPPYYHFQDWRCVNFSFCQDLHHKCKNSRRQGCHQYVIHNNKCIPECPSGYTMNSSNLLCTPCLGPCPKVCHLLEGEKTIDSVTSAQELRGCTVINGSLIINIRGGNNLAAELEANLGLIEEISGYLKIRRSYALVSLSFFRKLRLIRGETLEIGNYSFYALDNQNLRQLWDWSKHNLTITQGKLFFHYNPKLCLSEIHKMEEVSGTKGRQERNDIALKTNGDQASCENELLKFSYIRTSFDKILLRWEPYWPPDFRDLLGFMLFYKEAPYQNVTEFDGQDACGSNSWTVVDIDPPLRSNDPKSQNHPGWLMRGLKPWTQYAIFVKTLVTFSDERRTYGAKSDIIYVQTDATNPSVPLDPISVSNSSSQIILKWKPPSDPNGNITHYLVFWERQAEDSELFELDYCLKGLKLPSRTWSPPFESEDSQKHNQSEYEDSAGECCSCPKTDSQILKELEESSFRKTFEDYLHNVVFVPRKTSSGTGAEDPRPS
Chain of Insulin receptor (P06213 763-1382 limits assumed): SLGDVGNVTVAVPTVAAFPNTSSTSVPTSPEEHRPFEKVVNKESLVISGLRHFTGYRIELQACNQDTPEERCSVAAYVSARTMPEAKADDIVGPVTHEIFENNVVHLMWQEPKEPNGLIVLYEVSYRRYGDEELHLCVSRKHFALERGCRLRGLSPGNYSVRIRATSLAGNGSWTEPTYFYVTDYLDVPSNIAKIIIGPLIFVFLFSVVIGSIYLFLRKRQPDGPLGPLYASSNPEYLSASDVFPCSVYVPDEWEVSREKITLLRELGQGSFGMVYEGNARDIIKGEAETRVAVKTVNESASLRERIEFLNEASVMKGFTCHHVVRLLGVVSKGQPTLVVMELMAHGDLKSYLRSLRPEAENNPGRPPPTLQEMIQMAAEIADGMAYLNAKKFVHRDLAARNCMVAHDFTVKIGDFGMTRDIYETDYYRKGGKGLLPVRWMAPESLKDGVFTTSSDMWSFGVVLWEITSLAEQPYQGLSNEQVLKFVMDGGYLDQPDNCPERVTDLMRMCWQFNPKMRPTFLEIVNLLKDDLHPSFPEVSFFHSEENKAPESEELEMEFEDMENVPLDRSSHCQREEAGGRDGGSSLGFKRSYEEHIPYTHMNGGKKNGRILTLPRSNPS
Experiment [7] has as its target Fibroblast growth factor receptor 3 (Homo sapiens, UniProt P22607). The experiment can be described thus: Selectivity interaction (Kinase screening (Nanosyn)) EUB0000604a FGFR3.
Experiment [8] has as its target T2, Cyclin-dependent kinase-like 2 (Homo sapiens) (UniProt Q92772).
T2 sequence (whole entry): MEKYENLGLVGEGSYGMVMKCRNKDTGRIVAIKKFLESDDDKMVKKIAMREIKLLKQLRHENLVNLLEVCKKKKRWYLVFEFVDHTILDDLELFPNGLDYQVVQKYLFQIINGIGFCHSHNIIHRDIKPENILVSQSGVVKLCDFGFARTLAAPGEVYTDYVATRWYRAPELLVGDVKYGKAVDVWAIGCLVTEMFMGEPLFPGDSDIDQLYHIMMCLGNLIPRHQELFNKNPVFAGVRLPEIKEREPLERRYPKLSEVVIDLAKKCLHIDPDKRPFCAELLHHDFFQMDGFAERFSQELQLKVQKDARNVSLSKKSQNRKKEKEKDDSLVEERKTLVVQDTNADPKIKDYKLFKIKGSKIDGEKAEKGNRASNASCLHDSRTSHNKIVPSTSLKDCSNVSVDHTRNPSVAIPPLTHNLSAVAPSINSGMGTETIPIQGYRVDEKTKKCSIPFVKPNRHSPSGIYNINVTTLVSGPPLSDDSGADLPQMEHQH
The experiment can be described thus: Selectivity interaction (KinomeScan (DiscoverX)) EUB0000045b CDKL2.

In experiment [9] the target is T3, SNF-related serine/threonine-protein kinase (Homo sapiens) (UniProt Q9NRH2).
T3 sequence (whole entry): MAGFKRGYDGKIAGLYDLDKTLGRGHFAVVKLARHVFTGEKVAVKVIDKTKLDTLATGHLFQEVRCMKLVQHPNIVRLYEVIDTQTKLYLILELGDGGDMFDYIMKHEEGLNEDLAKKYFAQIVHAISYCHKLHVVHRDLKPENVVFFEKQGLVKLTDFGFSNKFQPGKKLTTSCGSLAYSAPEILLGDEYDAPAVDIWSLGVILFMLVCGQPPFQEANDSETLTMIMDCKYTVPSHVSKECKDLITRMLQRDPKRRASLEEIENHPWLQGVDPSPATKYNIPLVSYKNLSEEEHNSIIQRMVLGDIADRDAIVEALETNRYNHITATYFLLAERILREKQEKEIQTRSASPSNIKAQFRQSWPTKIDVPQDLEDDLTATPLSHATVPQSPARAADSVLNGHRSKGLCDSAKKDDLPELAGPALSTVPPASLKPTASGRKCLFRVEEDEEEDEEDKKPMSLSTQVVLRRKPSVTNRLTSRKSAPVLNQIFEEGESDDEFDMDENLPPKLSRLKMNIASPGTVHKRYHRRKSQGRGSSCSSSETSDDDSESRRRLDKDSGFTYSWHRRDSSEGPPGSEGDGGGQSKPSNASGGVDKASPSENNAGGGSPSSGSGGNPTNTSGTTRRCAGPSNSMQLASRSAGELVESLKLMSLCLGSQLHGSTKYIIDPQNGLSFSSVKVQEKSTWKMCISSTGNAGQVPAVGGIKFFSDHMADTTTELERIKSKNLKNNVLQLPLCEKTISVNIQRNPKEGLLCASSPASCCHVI
The experiment can be described thus: Selectivity interaction (KinomeScan (DiscoverX)) EUB0000229b SNRK. Conditions: at 10 µM.

The target in experiment [10] is Serine/threonine-protein kinase 17A (Homo sapiens, UniProt Q9UEE5).
Chain of Serine/threonine-protein kinase 17A (Q9UEE5 whole entry): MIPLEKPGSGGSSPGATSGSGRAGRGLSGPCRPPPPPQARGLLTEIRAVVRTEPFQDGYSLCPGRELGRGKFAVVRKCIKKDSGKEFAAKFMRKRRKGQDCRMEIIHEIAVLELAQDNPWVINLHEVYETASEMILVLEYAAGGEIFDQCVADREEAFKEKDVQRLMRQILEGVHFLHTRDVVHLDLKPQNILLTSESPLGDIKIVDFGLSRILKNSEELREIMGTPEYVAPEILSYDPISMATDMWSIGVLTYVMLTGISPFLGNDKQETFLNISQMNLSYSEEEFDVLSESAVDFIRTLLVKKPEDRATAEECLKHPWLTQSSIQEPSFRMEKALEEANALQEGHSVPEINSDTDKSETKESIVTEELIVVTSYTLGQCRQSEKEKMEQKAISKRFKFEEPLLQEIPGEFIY

From ChEMBL document CHEMBL5465560, “Selectivity Literature for EUbOPEN Chemogenomic Library” (2024) come the findings set out here.

For orientation: IC50 means the point on the concentration scale where inhibition reaches its midpoint. The low end stands for higher potency, the high end for lower potency.

Chain of LIM domain kinase 2 (Homo sapiens) (P53671 whole entry, looked up, the tested form may be a part): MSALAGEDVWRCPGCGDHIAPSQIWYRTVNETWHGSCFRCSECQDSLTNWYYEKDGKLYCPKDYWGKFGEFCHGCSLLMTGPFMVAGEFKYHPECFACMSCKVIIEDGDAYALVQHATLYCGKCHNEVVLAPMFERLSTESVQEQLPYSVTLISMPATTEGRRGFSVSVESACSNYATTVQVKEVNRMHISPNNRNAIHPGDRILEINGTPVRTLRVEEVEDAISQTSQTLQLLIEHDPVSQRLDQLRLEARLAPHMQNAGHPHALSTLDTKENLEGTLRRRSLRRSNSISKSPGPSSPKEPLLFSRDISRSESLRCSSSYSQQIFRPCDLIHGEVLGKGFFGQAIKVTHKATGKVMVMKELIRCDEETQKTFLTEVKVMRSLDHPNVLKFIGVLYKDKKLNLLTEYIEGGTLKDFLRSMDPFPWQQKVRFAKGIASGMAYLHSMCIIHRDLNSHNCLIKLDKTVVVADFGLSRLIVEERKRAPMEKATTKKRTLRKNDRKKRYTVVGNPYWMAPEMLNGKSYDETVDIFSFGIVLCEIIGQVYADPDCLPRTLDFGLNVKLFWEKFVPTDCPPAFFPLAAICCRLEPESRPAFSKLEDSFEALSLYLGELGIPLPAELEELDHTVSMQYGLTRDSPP
Chain of Fibroblast growth factor receptor 3 (P22607 23-806 limits assumed): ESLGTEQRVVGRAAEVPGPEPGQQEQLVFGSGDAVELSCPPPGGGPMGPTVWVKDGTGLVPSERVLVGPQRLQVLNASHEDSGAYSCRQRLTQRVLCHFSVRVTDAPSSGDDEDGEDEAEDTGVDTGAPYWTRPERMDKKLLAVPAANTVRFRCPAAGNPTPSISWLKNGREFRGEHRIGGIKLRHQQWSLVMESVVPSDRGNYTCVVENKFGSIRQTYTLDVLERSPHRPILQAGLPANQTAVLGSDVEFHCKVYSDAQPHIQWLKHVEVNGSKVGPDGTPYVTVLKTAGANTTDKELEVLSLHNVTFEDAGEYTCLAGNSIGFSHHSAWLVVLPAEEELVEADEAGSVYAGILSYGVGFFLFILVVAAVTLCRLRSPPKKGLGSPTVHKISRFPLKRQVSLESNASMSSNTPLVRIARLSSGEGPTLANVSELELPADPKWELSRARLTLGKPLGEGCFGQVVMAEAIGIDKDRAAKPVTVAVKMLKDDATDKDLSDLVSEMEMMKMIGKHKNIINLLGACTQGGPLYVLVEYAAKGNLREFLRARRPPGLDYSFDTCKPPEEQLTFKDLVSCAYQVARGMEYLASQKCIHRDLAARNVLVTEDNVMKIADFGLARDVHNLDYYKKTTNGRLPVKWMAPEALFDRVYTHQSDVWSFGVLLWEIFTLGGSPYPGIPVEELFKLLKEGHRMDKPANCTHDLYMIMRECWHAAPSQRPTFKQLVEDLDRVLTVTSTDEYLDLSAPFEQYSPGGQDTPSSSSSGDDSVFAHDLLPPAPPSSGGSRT

In the case of `C=CC(=O)Nc1cccc(C(=O)Nc2ccc(Nc3cc(-c4[nH]c(SC)nc4C)ccn3)cc2)c1`, the figures for the % of control in experiment [1] (at 1 µM) and in [1] (at 5 µM) were 90% and 80%, respectively.
Take `Cc1cc([C@@H](C)Nc2ccccc2C(=O)O)c2nc(N3CCOCC3)cc(=O)n2c1` [AZD-6482]: the figures for the % of control in [2] and in experiment [3] were 95% and 70%, respectively.
In the case of `CN(C)C/C=C/C(=O)Nc1ccc(C(=O)N2CCCC(Nc3ncc(Cl)c(-c4c[nH]c5ccccc45)n3)C2)cc1` (stereo not drawn), the % of control in experiment [4] turned out to be 80%; in [5] it was 89%.
As for `CN(C)CCOc1ccc(-c2nc(-c3ccncc3)c(-c3ccc4c(c3)CC/C4=N\O)[nH]2)cc1`, the % of control in experiment [6] came out at 98%; on Insulin receptor, 100%.
Consider `Cc1cnc(Nc2ccc(F)cc2Cl)nc1-c1c[nH]c(C(=O)N[C@H](CO)c2cccc(Cl)c2)c1`, for which the % of inhibition in experiment [7] amounted to 8%.
On to `C=CC(=O)Nc1cc(-n2c(=O)ccc3cnc4ccc(-c5ccc(NS(C)(=O)=O)cc5)cc4c32)ccc1C`, for which the % of control in experiment [8] (at 1 µM) and in [8] (at 10 µM) was 93% in each case.
`COc1cc(N(C)c2ccnc3ccc(C(F)(F)F)cc23)cc(OC)c1OC` displayed a % binding in experiment [9] of 53%.
With `CN1CCN(C(=O)c2ccc3cc2OCCOCCNc2ccn4ncc-3c4n2)CC1`, in experiment [10], the IC50 worked out at 20 µM.
